For series [1] the following is noted: ref Meyer et al., 2010; cited from earlier work.
A short description of series [2]: LC-MS/MS detection of mephedrone metabolites in a human urine sample. It is filed as in vivo. Details: key to Detected in urine samples: detected (+); not detected (−). The settings on record: for detection in human urine sample: achiral LC-MS/MS, after enzymatic workup. The source says:
The biological specimen, human urine, was provided by the Department of Chemical Analytics, Seibersdorf Laboratories GmbH. The sample was taken from a subject postmortem in a fatal case of drug overdose. […] Given this fact, we assumed that also the metabolites would be detectable in sufficient quantity. To evaluate the presence of any metabolites whatsoever in the urine sample we designed an achiral separation protocol for liquid chromatography and we coupled it with triple quadrupole mass spectrometer. The advantage of LC-MS/MS system is that even if two substances have the same retention time, they can still be differentiated by their fragmentation pattern. More in details, the samples for urine analysis were analyzed using a CTC HTS PAL autosampler (CTC Analytics) and a Thermo Surveyor LC system (Thermo) interfaced to a TSQ Quantum Discovery Max triple quadrupole mass spectrometer (Thermo). A C18 security guard cartridge (4 × 2 mm) (Phenomenex) was used for sample clean-up and the analytical HPLC column was a Kinetex 1.7 μm C18 100Å 150 × 2.1 mm (Phenomenex) and Cortecs T3, 2.7 μm C18 120Å 100 × 2.1 mm (Waters). Column selection was performed by a Maylab Mistraswitch column selector (Maylab Analytical Instruments). The solvents were 0.2% formic acid in water (A) and acetonitrile (B). The temperature of the analytical column was maintained at 40°C. The mass spectrometer was equipped with heated electrospray ionization (ESI) source and was operated in positive ionization mode with a spray voltage set at 4500V. The capillary temperature was adjusted to 320°C. The sheath and auxiliary gas (nitrogen) flow rate was 25 and 10 arbitrary units, respectively. The system was operated in selected […] (srm) mode with argon as the collision gas at a pressure of 1.5 mTorr. For the achiral separation, stem solutions were prepared by weighing the reference substances in volumetric flasks and filling them up with MeOH (99.9%; HPLC grade), creating average concentration of 1 mg/ml. Then dilution solutions were prepared as follows: 10 μL of stem solution was filled up to 5 ml MeOH, creating dilution […]. Samples were prepared from dilution solutions by taking out 25 μL and mixing it together with 25 μL of ISP, 50 μL ISS and filled up to 1 ml with Milli-Q water. The final sample solvent was water/MeOH 9/1. For the enzymatic workup, phosphate buffer (1 ml, 0.8M, pH = 7), β-glucuronidase/arylsulfatase (25 μL) and β-glucuronidase (25 μL) were added to the solutions. The solutions were heated at 50°C during 1 h upon which EtOAc (7 ml) was added. The solution was put into shaker for 10min, following centrifugation for 5 min. The organic phase was separated and evaporated into dryness in stream of pressurized nitrogen. The residue was taken up in 150 μL MQ-water/MeOH 9/1 + 0.4% formic acid, heated at 50°C for 5 min and subjected to LC-MS analysis.
If on one hand the synthesis of putative metabolites allows the establishment of structure activity relationships, on the other hand, it provides pure material to evaluate their presence in human urine samples and determine their pharmacological relevance. To determine the presence of any metabolites in the urine sample, we have designed an achiral separation protocol and coupled the liquid chromatography with triple quadrupole mass spectrometer (LCMS/MS). With the LCMS/MS system two substances with the same retention time, can still be differentiated by their fragmentation pattern. Since metabolites carrying a primary alcohol functionality can form glucuronide and sulfate conjugates, we performed an enzymatic workup of the urine sample in order to cleave them. Apart from the parental drug, we detected 4-OH-MMC and 4-MC (nor-meph) which we have both already identified in our previous publication ([Mayer et al., 2019]), and the two previously uncharacterized metabolites 4-COOH-MC and dihydro-4-MC (Figure 6). […]

The conditions of series [3]: cited from earlier work.
Series [4] deals with T1, DAT (Homo sapiens, UniProt Q01959).
T1 construct: expressed in transfected cells
The series is described as follows: cell-based.

In series [5] the target is T1, DAT. The series is described as follows: Transporter electrophysiology (whole cell patch clamp), HEK293 cells stably expressing DAT. It counts as cell-based. The conditions noted are these: compound applied at 30 µM, -60 mV. On the procedure: (§1) Human embryonic kidney 293 cells (HEK293 cells) were cultivated in Dulbecco’s Modified Eagle Medium (DMEM), containing 10% heat-in- activated fetal calf serum (FCS), streptomycin (100 μg x 100 ml−1) and penicillin (100 U × 100 ml−1). Geneticin (50 μg x mL−1) was added to select HEK293 cells stably expressing the human isoforms of DAT, NET and SERT as described earlier ([Mayer et al., 2016a]). Cell lines were maintained in a sub-confluent state in humidified atmosphere (37°C, 5% CO2). For uptake inhibition experiments cells expressing the desired transporter were seeded the days before the experiment (40,000 cells per well) or two days before the experiments (20,000 cells per well) onto poly-D-lysine (PDL) coated 96-well plates 24 h prior to the experiment. In the case of transporter-electrophysiology cells were cultivated in 10 cm dishes and 24 h before the experiments they were detached, and seeded at low density onto PDL-coated 3 cm dishes.
(§2) Transporter electrophysiology was conducted by the means of whole cell patch clamp in HEK293 cells stably expressing DAT or SERT. Substrate-induced currents were recorded under voltage clamp (−60 mV). Cells were continuously superfused with a physiological external solution that contains 140 mM NaCl, 2.5 mM CaCl2, 2 mM MgCl2, 20 mM glucose and 10 mM HEPES, pH = 7.4. The pipette solution contained 133 mM potassium gluconate, 6 mM NaCl, 1 mM CaCl2, 0.7 mM MgCl2, 10 mM HEPES, 10 mM EGTA, pH = 7.2. Currents elicited by mephedrone 30 μM, were measured at room temperature (20–24°C) using an […] amplifier and pClamp 11.2 software (MDS Analytical Technologies). All the solutions perfused onto the cell were applied using a DAD-12 superfusion system and a 8-tube perfusion manifold (ALA Scientific Instruments), which allowed for rapid solution exchange. Current traces were filtered at 1 kHz and digitized at 10 kHz using a Digidata 1,550 (MDS Analytical Technologies). […] For the analysis, passive holding currents were subtracted, and the traces were filtered using a 100-Hz digital Gaussian low-pass filter.
Background: The patch-clamp technique gives a direct electrical read-out from membranes.

In series [6] the target is T2, SERT (Homo sapiens, UniProt P31645).
T2 construct: expressed in transfected cells
The series is described as follows: Transporter electrophysiology (whole cell patch clamp), HEK293 cells stably expressing SERT. It counts as cell-based. The settings on record: compound applied at 30 µM, -60 mV. On the procedure:
as §1, §2

The conditions of series [7]: ref Olesti et al., 2019, cited from earlier work.
Series [8] addresses T2, SERT. The conditions noted are these: cited from earlier work.
In another series the target is T3, human NET (Homo sapiens, UniProt P23975).
T3 construct: expressed in transfected cells
The series is described as follows: cell-based.

The target of series [9] is T1, DAT. The settings on record: read-out: IC50 (µM) DAT; mean (95% confidence interval); ref Niello et al. (2019); cited from earlier work.
Series [10] relates to SERT. Also noted: method as in Gregg et al., 2015; Mayer et al., 2016b; Mayer et al., 2019. The conditions noted are these: ref Gregg et al., 2015, Mayer et al., 2016b, 2019; cited from earlier work.
The target in series [11] is T2, SERT. As to the kind of experiment: Uptake-inhibition of [3H]5-HT in HEK293 cells stably expressing human SERT. It counts as cell-based. The conditions noted are these: pIC50 SERT, QSAR data matrix, from IC50 SERT.

Structures are written as SMILES. Like-named read-outs stand apart in the source and are kept apart here.

T2 sequence (P31645 whole entry): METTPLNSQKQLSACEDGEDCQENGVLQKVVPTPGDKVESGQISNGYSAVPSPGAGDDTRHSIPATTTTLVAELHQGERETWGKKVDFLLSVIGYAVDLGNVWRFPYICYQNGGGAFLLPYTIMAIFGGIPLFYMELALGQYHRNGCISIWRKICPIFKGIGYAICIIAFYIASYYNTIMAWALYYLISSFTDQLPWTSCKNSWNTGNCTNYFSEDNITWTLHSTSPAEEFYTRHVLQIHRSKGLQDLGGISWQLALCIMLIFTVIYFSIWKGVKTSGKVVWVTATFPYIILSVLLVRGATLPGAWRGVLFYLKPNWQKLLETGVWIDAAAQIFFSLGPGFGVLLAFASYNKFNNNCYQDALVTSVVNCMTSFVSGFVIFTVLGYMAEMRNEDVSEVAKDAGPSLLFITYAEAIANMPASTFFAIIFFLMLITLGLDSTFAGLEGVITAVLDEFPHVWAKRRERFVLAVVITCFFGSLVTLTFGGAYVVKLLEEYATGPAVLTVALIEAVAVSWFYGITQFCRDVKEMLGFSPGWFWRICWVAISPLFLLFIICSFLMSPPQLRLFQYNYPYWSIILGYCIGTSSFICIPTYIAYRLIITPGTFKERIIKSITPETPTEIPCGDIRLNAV
T1 sequence (Q01959 whole entry): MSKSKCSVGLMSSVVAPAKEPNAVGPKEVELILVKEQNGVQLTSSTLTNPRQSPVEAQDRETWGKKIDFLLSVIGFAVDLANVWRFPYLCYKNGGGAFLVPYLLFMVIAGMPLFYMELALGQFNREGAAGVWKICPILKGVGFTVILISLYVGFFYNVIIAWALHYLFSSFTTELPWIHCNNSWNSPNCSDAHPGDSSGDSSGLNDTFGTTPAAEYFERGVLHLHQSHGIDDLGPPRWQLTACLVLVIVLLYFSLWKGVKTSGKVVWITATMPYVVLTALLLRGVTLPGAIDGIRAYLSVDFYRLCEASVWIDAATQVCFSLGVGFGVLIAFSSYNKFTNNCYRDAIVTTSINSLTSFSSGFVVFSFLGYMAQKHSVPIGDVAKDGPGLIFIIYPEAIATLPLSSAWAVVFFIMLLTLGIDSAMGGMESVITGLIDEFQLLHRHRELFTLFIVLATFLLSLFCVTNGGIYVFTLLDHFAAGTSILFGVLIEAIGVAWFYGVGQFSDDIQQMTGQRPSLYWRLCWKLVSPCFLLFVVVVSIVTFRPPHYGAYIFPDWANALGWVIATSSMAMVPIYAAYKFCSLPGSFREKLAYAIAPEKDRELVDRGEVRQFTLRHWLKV
T3 sequence (P23975 whole entry): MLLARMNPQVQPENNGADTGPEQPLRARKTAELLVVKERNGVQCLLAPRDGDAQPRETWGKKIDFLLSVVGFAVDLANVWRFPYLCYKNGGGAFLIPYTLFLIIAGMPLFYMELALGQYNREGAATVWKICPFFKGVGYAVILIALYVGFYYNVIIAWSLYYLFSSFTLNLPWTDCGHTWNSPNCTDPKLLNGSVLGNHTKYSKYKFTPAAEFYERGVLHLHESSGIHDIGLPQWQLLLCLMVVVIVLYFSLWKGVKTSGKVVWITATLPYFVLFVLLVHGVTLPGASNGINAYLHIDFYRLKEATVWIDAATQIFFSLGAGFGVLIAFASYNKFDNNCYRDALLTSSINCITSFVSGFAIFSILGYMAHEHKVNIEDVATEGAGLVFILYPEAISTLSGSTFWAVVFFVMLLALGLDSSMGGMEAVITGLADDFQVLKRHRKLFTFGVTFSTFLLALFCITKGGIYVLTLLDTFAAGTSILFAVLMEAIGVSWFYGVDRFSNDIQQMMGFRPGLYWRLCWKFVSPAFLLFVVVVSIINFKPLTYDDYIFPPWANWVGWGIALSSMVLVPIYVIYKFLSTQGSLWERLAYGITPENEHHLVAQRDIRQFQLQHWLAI

Turning to `CC(N)C(=O)c1ccc(CO)cc1` (stereo not shown) [4-OH-MC], the “detection in human urine” value in series [1] is “not in human urine”. In series [2], the “detection in human urine sample” value is “not found”. Besides, the relative abundance in [3] (minor metabolites in rats, ref Linhart et al., 2016) is on record as 0.1–0.2%. Moreover, the “detection in rat urine” value in series [3] (ref Meyer et al., 2010) is listed as “could be detected in rat urine”.
On to `CNC(C)C(=O)c1ccc(C)cc1` (stereo not shown) [Mephedrone, reference compound], for which the “Selectivity ratio DAT/SERT” value on DAT [4] was found to be 2.90. Moreover, the “Detected in urine samples” value in series [2] (human urine, mephedrone user, only syn- and anti-configurations could be separated) is reported as “+”. On DAT [5], the DAT-mediated current entry is “elicited both DAT- and SERT mediated currents”. Besides, the SERT-mediated current result at SERT [6] was “elicited both DAT- and SERT mediated currents”. The plasma concentrations in [7] (conversion of ng h/ml range) is 0.090 to 1.25 µM·h. In addition, the IC50 on SERT [8] (read-out: IC50 (µM) SERT, mean (95% confidence interval), ref Niello et al. (2019)) was 8.74 µM; at DAT [9] it was 3.01 µM. In addition, the “Selectivity ratio NET/DAT” value at human NET was 1.09.
Consider `CN[C@@H](C)C(=O)c1ccc(C)cc1` [S-mephedrone, reference compound], for which the “potency as releaser of SERT, times higher than R-mephedrone” value with SERT [10] is recorded as 40 times. Besides, the IC50 on DAT [4] (QSAR data matrix, from IC50 DAT, read-out: pIC50 DAT (converted)) is 0.776 µM; on SERT [8] (read-out: IC50 SERT, QSAR data matrix, unit inferred, compounds not tested in this paper, source not given, presumably ref Mayer et al., 2019), 10.7 µM; at human NET, 2.75 µM; against SERT [11] it was 10.7 µM.
Turning to `CNC(C)C(O)c1ccc(C)cc1` (stereo not shown) [dihydro-4-MMC, dihydro-mephedrone, reference compound], the “detection in human urine sample” value in series [2] is recorded as “did not find”. For the same molecule, the “plasma level as % of the plasma mephedrone” value in series [7] is given as 10%.

The record behind these values is article PMC8063026 (Frontiers in Pharmacology, 2021).
